# Results from patent US20090220473A1, “ADIR RELATED POLYMORPHISMS AND APPLICATIONS THEREOF” (Leiden University Medical Center, priority 2006, published 2009).
# “Also recorded” adds a separate entry of the source.
# Legend:
# GVHD = assay: Treatment of acute GVHD in the patient after DLI; format: in vivo, human; details: 1 mg prednisolone/kg body weight and cyclosporin A together
# [1] = target: T1, recombinant HLA A*0201 molecules (Homo sapiens, UniProt P04439, D140Y/D185E/D98H/E176V/E277Q/G131W/G231S/I119V/I121R/I166T/I218V/L300P/L318F/N151K/N90K/P208A/P217A/Q86G/Q94H/R138H/R169H/T345S); assay: Binding of peptides to recombinant HLA A*0201 molecules (monomer folding)
# T1 construct: biotin (biotinylated); made in house
# From the text: Recombinant biotinilated HLA A*0201 monomers were folded in the presence of β2-microbglobulin with peptide […] or […]. Streptavidin-PE and streptavidin-APC tetramers were produced with refolded complexes as described previously (Altman et al. 1996 Science 274: 94-96). Tetrameric complexes were used to stain thawed patient samples taken at the indicated time points post SCT and DLI. Cells were counterstained by CD8 APC (Caltag, Burlingame, Calif., USA) and analysed by flowcytometry. Tetramer positive events were single well FACS sorted, expanded and tested for cytotoxicity.
# T2 cells = assay: 51Cr release assay on peptide loaded T2 cells with CTL; format: cell-based; details: for recognition (lysis) by RDR2 of peptide loaded T2 cells: 51Cr release assay, FIG. 2b
# Experimental: Cytotoxicity of CTL clones in standard ^51Cr release assays was performed as described previously (Faber et al. 1992, J Exp Med 176: 1283-1289). Target cells were labelled with 100 μCi Na2^51CrO4 (Amersham Biosciences, Freiburg, Germany) for 1 hour at 37° C., washed, and diluted to […] to 5*10^4 cells per ml to obtain 10^3 to 5*10^3 target cells per well. CTL's were added in various effector:target (E:T) ratios and incubated for 4 hours. Supernatants were harvested and transferred to solid scintillator containing microplates (Perkin Elmer, Boston Mass., USA) and counted on a Topcount counter (Perkin Elmer). HPLC purified natural peptides or diluted synthetic peptides were tested for reactivity by loading ^51Cr labelled T2 or donor EBV LCL cells for 1-2 hours at 37° C. and 5% CO2 prior to addition of CTL.
# [2] = target: recombinant HLA A*0201 molecules (human, biotinylated (site not stated)); assay: refolding of recombinant HLA A*0201 with beta2-microglobulin and peptide
binding to recombinant HLA A*0201 molecules [1],binding result [2],Molecule,recognition (lysis) by RDR2 of peptide loaded T2 cells (T2 cells),other results
,,C[C@]12C=CC(=O)C=C1CC[C@@H]1[C@@H]2[C@@H](O)C[C@@]2(C)[C@H]1CC[C@]2(O)C(=O)CO [prednisolone],,treatment of GVHD (GVHD): treated successfully
able to bind,,SVAPALALFPA [LB-ADIR-1F],lysed; also recorded: recognized,
able to bind,,"SVAPALALSPA [SVAPALAL-S-PA, donor-type allelic counterpart peptide with serine at position 9, reference compound]",not,
,,SVAPAXAXFPA,,"peptide level at which lysis by RDR2 was reconstituted (T2 cells; 51Cr labelled T2 cells loaded with synthetic peptide, levels as low as, data not shown): ≤ 10 pM"
,binds,SVAPALALFPA (Synthetic 11-mer) [LB-ADIR-1F peptide SVAPALALFPA],,
,binds,SVAPALALSPA (Synthetic peptide of the donor-type (Ser) allele) [peptide SVAPALALSPA],,
